The source of these data is patent US20100298252A1, “METHODS AND COMPOSITIONS FOR OPHTHALMIC TREATMENT OF FUNGAL AND BACTERIAL INFECTIONS” (priority 2004, published 2010).

What all share (assay): Antibiotic resistance profile by disc diffusion
What all share (format): cell-based
Holding throughout (design): key: R = resistant; I = intermediate; S = sensitive
What all share (settings): disc diffusion on MHA
A general note: Agar diffusion results depend on both activity and mobility in agar.

The subject of one test is Staphylococcus aureus. On the procedure: (§1) The organisms of this study were isolated from human burn patients. They included strains of methicillin resistant Staphylococcus aureus, and vancomycin resistant strains of Pseudomonas aeruginosa and Enterococcus faecalis. The bacterial isolates were propagated in or on Brain Heart Infusion broth (BHI), Mueller-Hinton Broth (MHB), blood agar (BA), Mueller-Hinton agar (MHA), enterococcus agar (EA), or 2× nutrient agar (2×NA).
(§2) Antibiotic resistance profiles were determined by the disc diffusion method on MHA (5).

The test system of the next test is Enterococcus faecalis. The method, then: as §1, §2
The subject of another test is Pseudomonas aeruginosa. On the procedure: as §1, §2

Structures are written as SMILES.

As for `[H]/N=C(/N)N[C@H]1[C@H](O)[C@@H](O)[C@H](O[C@@H]2O[C@@H](C)[C@](O)(C=O)[C@H]2O[C@@H]2O[C@@H](CO)[C@H](O)[C@@H](O)[C@@H]2NC)[C@@H](N/C(N)=N\[H])[C@@H]1O` [S, streptomycin], the Antibiotic resistance profile result is reported as “S” in the test on Staphylococcus aureus, “R” in the test on Enterococcus faecalis and “R” in the test with Pseudomonas aeruginosa.

Take `CCn1cc(C(=O)O)c(=O)c2ccc(C)nc21` [NA, nalidixic acid]: the Antibiotic resistance profile entry with Staphylococcus aureus, in the test on Enterococcus faecalis and in the test with Pseudomonas aeruginosa was “R” throughout.

As to `CN[C@H](CC(C)C)C(=O)N[C@H]1C(=O)N[C@@H](CC(N)=O)C(=O)N[C@H]2C(=O)N[C@H]3C(=O)N[C@H](C(=O)N[C@H](C(=O)O)c4cc(O)cc(O)c4-c4cc3ccc4O)[C@H](O)c3ccc(c(Cl)c3)Oc3cc2cc(c3O[C@@H]2O[C@H](CO)[C@@H](O)[C@H](O)[C@H]2O[C@H]2C[C@](C)(N)[C@H](O)[C@H](C)O2)Oc2ccc(cc2Cl)[C@H]1O` [Va, vancomycin], the Antibiotic resistance profile result with Staphylococcus aureus is recorded as “S”; in the test with Enterococcus faecalis it was “R”; in the test on Pseudomonas aeruginosa, “R”.

For `NC[C@H]1O[C@H](O[C@H]2[C@H](O)[C@@H](O[C@H]3O[C@H](CO)[C@@H](O)[C@H](N)[C@H]3O)[C@H](N)C[C@@H]2N)[C@H](O)[C@@H](O)[C@@H]1O` [K, kanamycin], the Antibiotic resistance profile entry with Staphylococcus aureus, in the test with Enterococcus faecalis and in the test on Pseudomonas aeruginosa was “R” each time.
